The test system of data set [1] is kidney cancer cell line (Caki-1). As to the kind of experiment: tumor cell proliferation inhibition (CTG), kidney cancer cell line. The conditions noted are these: Homo sapiens, 72 hours, read-out: Caki-1 (renal cancer) IC50. In kind it is cell-based.
Data set [2] has as its system pancreatic cancer cell line (BXPC3). As to the kind of experiment: tumor cell proliferation inhibition (CTG), pancreatic cancer cell line. The format is cell-based. The conditions noted are these: Homo sapiens, BXPC-3, 72 hours.
In data set [3] the test system is lung cancer cell line (A549). As to the kind of experiment: tumor cell proliferation inhibition (CTG), lung cancer cell line. The format is cell-based. The conditions noted are these: Homo sapiens, 72 hours.
Data set [4] deals with gastric cancer cell line (SNU16). As to the kind of experiment: tumor cell proliferation inhibition (CTG), gastric cancer cell line. In kind it is cell-based. The conditions noted are these: Homo sapiens, SNU-16, 72 hours, read-out: SUN16 IC50.
The next data set deals with prostatic cancer (PC-3). Nature of the data set: tumor cell proliferation inhibition (CTG), PC-3. The format is cell-based. The conditions noted are these: 72 hours.
The next data set has as its target hERG potassium channels (Homo sapiens (Human), UniProt Q12809). As to the kind of experiment: in vitro inhibitory effect of hERG, whole-cell patch clamp. In kind it is cell-based. The conditions noted are these: whole-cell recording, room temperature.
For data set [5], the system named is hepatocellular carcinoma cell line (Hep3B 2.1-7). Nature of the data set: tumor cell proliferation inhibition (CTG), hepatocellular carcinoma cell line. The conditions noted are these: Homo sapiens, 72 hours. In kind it is cell-based.
The test system of data set [6] is leukemia cell line (K562). Nature of the data set: tumor cell proliferation inhibition (CTG), leukemia cell line. The conditions noted are these: Homo sapiens, 72 hours. In kind it is cell-based.
Data set [7] deals with cervical cancer cell lines (Hela). As to the kind of experiment: tumor cell proliferation inhibition (CTG), cervical cancer cell line. The format is cell-based. The conditions noted are these: Homo sapiens, 72 hours.
A short description of data set [8]: MTD toxicity test in rats. In kind it is in vivo. The conditions noted are these: rat, in vivo.

Chain of hERG potassium channels (Q12809 whole entry): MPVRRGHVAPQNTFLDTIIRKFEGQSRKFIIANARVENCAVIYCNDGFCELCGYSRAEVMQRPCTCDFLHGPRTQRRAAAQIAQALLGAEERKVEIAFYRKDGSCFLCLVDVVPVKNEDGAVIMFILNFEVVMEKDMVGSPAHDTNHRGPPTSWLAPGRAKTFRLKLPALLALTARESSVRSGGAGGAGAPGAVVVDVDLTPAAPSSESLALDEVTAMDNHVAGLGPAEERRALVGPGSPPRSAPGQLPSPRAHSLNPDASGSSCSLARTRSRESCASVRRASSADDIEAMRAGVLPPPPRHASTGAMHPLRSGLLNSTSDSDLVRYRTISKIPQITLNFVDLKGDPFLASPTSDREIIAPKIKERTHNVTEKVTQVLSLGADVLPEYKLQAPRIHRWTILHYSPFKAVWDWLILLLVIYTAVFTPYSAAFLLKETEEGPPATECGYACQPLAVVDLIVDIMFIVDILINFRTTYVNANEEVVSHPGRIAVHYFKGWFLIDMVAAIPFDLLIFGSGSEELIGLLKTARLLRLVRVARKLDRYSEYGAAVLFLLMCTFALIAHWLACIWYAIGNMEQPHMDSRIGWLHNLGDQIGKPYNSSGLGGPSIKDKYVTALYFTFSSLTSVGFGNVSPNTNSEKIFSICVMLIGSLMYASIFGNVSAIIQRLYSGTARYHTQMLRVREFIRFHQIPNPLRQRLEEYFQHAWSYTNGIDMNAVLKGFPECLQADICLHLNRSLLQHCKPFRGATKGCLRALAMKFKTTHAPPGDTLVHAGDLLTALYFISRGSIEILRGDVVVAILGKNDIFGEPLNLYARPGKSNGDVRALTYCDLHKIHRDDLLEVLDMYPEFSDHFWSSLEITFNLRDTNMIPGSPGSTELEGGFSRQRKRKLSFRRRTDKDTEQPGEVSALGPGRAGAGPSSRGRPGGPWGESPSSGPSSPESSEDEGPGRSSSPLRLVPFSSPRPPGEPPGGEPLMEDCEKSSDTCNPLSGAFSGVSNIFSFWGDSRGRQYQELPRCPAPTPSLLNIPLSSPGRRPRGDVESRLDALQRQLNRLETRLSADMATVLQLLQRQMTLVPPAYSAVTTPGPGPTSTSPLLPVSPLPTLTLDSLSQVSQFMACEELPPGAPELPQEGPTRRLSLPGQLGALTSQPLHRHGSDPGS

In the case of `COc1cc2nccc(Oc3c(F)cc(NC(=O)NC4CC4)c(Cl)c3F)c2cc1C(=O)N(C1CC1)C1CC1` [IIIb-13], the IC50 is more than 5 µM in data set [1], more than 10 µM in data set [2] and more than 5 µM in data set [3].

Regarding `COc1cc2nccc(Oc3c(F)cc(NC(=O)NC4CC4)c(Cl)c3F)c2cc1C(=O)N1CCC1` [IIIb-14], the values for the IC50 in data set [1], in data set [2] and in data set [3] were more than 5 µM, more than 10 µM and more than 5 µM, respectively.

In the case of `CNC(=O)c1cc(Oc2ccc(NC(=O)Nc3ccc(Cl)c(C(F)(F)F)c3)c(F)c2)ccn1` [Regorafenib, regorafenib, reference compound], the IC50 in data set [4] was 5 to 10 µM; with prostatic cancer (PC-3) it was more than 10 µM; against hERG potassium channels, 27 µM; in data set [5], more than 5 µM; in data set [6] it was more than 10 µM; in data set [1] it was more than 5 µM. Also, the IC50 in data set [7] was more than 10 µM; in [2], more than 10 µM; in [3] it was more than 5 µM.

Turning to `COc1cc2nccc(Oc3c(F)cc(NC(=O)NC4CC4)c(Cl)c3F)c2cc1C(=O)NCCN` [IIIb-51], the IC50 in data set [1] was more than 5 µM; in [2], more than 10 µM; in data set [3] it was more than 5 µM.

Turning to `COc1cc2nccc(Oc3c(F)cc(NC(=O)NC4CC4)c(Cl)c3F)c2cc1C(=O)NC(CO)CO` [IIIb-20], the IC50 is more than 5 µM in data set [1], more than 10 µM in [2] and more than 5 µM in data set [3].

Take `COc1cc2nccc(Oc3c(F)cc(NC(=O)NC4CC4)c(Cl)c3F)c2cc1C(=O)N[C@@H](C)CO` [IIIb-18]: the IC50 in data set [1] was more than 5 µM; in [2] it was more than 10 µM; in data set [3], more than 5 µM.

As to `COc1cc2nccc(Oc3c(F)cc(NC(=O)NC4CC4)c(Cl)c3F)c2cc1C(=O)NC1(C#N)CC1` [IIIb-48], the IC50 in [1] is more than 5 µM; in data set [2] it was more than 10 µM; in data set [3], more than 5 µM.

On to `COc1cc2nccc(Oc3c(F)cc(NC(=O)NC4CC4)c(Cl)c3F)c2cc1C(=O)Nc1cn[nH]c1` [IIIb-52], for which the IC50 in data set [1] is more than 5 µM; in data set [2], more than 10 µM; in data set [3], more than 5 µM.

For the compound `COc1cc2nccc(Oc3c(F)cc(NC(=O)NC4CC4)c(Cl)c3F)c2cc1C(=O)NC(C)C` [IIIb-04], the IC50 in data set [1] is more than 5 µM; in data set [2], more than 10 µM; in [3], more than 5 µM.

As for `CNC(=O)c1cc2c(Oc3c(F)cc(NC(=O)NC4CC4)c(F)c3F)ccnc2cc1OC` [IIIb-02], the IC50 in data set [1] was more than 5 µM; in data set [2], more than 10 µM; in data set [3] it was more than 5 µM.

`COc1cc2nccc(Oc3c(F)cc(NC(=O)NC4CC4)c(Cl)c3F)c2cc1C(=O)NC(CO)C(F)(F)F` (stereo not shown) [IIIb-42]: the figures for the IC50 in [1], in data set [2] and in data set [3] were more than 5 µM, more than 10 µM and more than 5 µM, respectively.

Regarding `COc1cc2nccc(Oc3c(F)cc(NC(=O)NC4CC4)c(Cl)c3F)c2cc1C(=O)NC(C)C#N` (stereo not shown) [IIIb-46], the figures for the IC50 in [1], in data set [2] and in [3] were more than 5 µM, more than 10 µM and more than 5 µM, respectively.

`CNC(=O)c1cc(Oc2ccc(NC(=O)Nc3ccc(Cl)c(C(F)(F)F)c3)cc2)ccn1` [Sorafenib, sorafenib, reference compound]: on hERG potassium channels, the IC50 was more than 10 µM.

In the case of `COc1cc2nccc(Oc3c(F)cc(NC(=O)NC4CC4)c(Cl)c3F)c2cc1C(=O)N(C)C` [IIIb-03], the figures for the IC50 in data set [1], in data set [2] and in data set [3] were more than 5 µM, more than 10 µM and more than 5 µM, respectively.

As for `COc1cc2nccc(Oc3c(F)cc(NC(=O)NC4CC4)c(Cl)c3F)c2cc1C(=O)NC1(C(F)(F)F)CC1` [IIIb-41], the IC50 in data set [1] was more than 5 µM; in [2] it was more than 10 µM; in data set [3], more than 5 µM.

In the case of `COc1cc2nccc(Oc3c(F)cc(NC(=O)NC4CC4)c(Cl)c3F)c2cc1C(=O)NCC1(C#N)CC1` [IIIb-49], the IC50 in data set [1] was more than 5 µM; in data set [2], more than 10 µM; in data set [3], more than 5 µM.

For `COc1cc2nccc(Oc3c(F)cc(NC(=O)NC4CC4)c(F)c3F)c2cc1C(=O)NC1CC1` [IIIb-11], the IC50 in data set [1] was less than 2.5 µM; in data set [2], less than 5 µM; in [3], less than 2.5 µM.

On to `COc1cc2nccc(Oc3c(F)cc(NC(=O)NC4CC4)c(Cl)c3F)c2cc1C(=O)NCCN(C)C` [IIIb-10], for which the IC50 is more than 5 µM in data set [1], more than 10 µM in data set [2] and more than 5 µM in [3].

Take `COc1cc2nccc(Oc3c(F)cc(NC(=O)NC4CC4)c(F)c3F)c2cc1C(=O)NCC(F)F` [IIIb-07]: the IC50 was more than 5 µM in data set [1], more than 10 µM in [2] and more than 5 µM in data set [3].

On to `COc1cc2nccc(Oc3c(F)cc(NC(=O)NC4CC4)c(Cl)c3OC)c2cc1C#N` [IIIb-30], for which the IC50 was more than 5 µM in data set [1], more than 10 µM in data set [2] and more than 5 µM in data set [3].

On to `COc1cc2nccc(Oc3c(F)cc(NC(=O)NC4CC4)c(Cl)c3F)c2cc1C(=O)NC[C@H](O)CO` [IIIb-22], for which the values for the IC50 in data set [1], in data set [2] and in [3] were 2.5 to 5 µM, more than 10 µM and 2.5 to 5 µM, respectively.

With `COc1cc2nccc(Oc3c(F)cc(NC(=O)NC4CC4)c(Cl)c3F)c2cc1C#N` [IIIb-29], the figures for the IC50 in data set [1], in data set [2] and in data set [3] were more than 5 µM, more than 10 µM and more than 5 µM, respectively.

In the case of `COc1cc2nccc(Oc3c(F)cc(NC(=O)NC4CC4)c(Cl)c3F)c2cc1C(=O)NC(C)(C)C#N` [IIIb-47], the figures for the IC50 in data set [1], in [2] and in [3] were more than 5 µM, more than 10 µM and more than 5 µM, respectively.

As for `COc1cc2nccc(Oc3c(F)cc(NC(=O)NC4CC4)c(Cl)c3F)c2cc1C(=O)N[C@H](C)CO` [IIIb-17], the figures for the IC50 in data set [1], in data set [2] and in data set [3] were more than 5 µM, more than 10 µM and more than 5 µM, respectively.

With `COc1cc2nccc(Oc3c(F)cc(NC(=O)NC4CC4)c(Cl)c3F)c2cc1C(=O)NC1(CO)CC1` [IIIb-23], the IC50 in [1] is more than 5 µM; in [2], more than 10 µM; in data set [3], more than 5 µM.

In the case of `COc1cc2nccc(Oc3c(F)cc(NC(=O)NC4CC4)c(Cl)c3F)c2cc1C(=O)NC(C)(C)CO` [IIIb-19], the IC50 is more than 5 µM in [1], more than 10 µM in data set [2] and more than 5 µM in data set [3].

In the case of `CN(C)CCOc1cc2nccc(Oc3c(F)cc(NC(=O)NC4CC4)c(Cl)c3F)c2cc1C(N)=O` [IIIb-59], the IC50 in data set [1] was more than 5 µM; in [2] it was more than 10 µM; in [3] it was more than 5 µM.

As for `COc1cc2nccc(Oc3c(F)cc(NC(=O)NC4CC4)c(Cl)c3F)c2cc1C(=O)N1CCN(C)CC1` [IIIb-27], the IC50 in data set [1] was more than 5 µM; in data set [2] it was more than 10 µM; in data set [3], more than 5 µM.

For `COc1cc2nccc(Oc3c(F)cc(NC(=O)NC4CC4)c(Cl)c3F)c2cc1C(=O)N1CC[C@@H](O)C1` [IIIb-25], the figures for the IC50 in data set [1], in data set [2] and in data set [3] were more than 5 µM, more than 10 µM and more than 5 µM, respectively.

`COc1cc2nccc(Oc3c(F)cc(NC(=O)NC4CC4)c(F)c3F)c2cc1C(=O)NCCO` [IIIb-15]: the concentration for half-maximal inhibition (IC50) was more than 5 µM in data set [1], more than 10 µM in data set [2] and more than 5 µM in [3].

`COc1cc2nccc(Oc3c(F)cc(NC(=O)NC4CC4)c(Cl)c3F)c2cc1C(=O)Nc1cnn(C)c1` [IIIb-53]: the 50% inhibitory concentration (IC50) is more than 5 µM in data set [1], more than 10 µM in [2] and more than 5 µM in [3].

Regarding `COc1cc2nccc(Oc3c(F)cc(NC(=O)NC4CC4)c(Cl)c3F)c2cc1C(=O)N1CC[C@H](O)C1` [IIIb-26], the IC50 in data set [1] is less than 2.5 µM; in [2], less than 5 µM; in [3] it was less than 2.5 µM.

Turning to `CNC(=O)c1cc2c(Oc3c(F)cc(NC(=O)NC4CC4)c(Cl)c3F)ccnc2cc1OC` [IIIb-01], the IC50 on hERG potassium channels was more than 30 µM; in data set [1] it was more than 5 µM; in [2], more than 10 µM; in [3], more than 5 µM. Moreover, in [8] (150 mg/kg, in rats, read-out: MTD toxicity dose), the MTD at 14 days is more than 150 mg/kg. Besides, the MTD in [8] (toxicity study for MTD, species not stated) stood at 300 mg/kg.

On to `COc1cc2nccc(Oc3c(F)cc(NC(=O)NC4CC4)c(Cl)c3F)c2cc1C(=O)N1CC(O)C1` [IIIb-24], for which the IC50 in data set [1] is more than 5 µM; in [2], more than 10 µM; in [3] it was more than 5 µM.

Turning to `COCCNC(=O)c1cc2c(Oc3c(F)cc(NC(=O)NC4CC4)c(Cl)c3F)ccnc2cc1OC` [IIIb-05], the values for the IC50 in data set [1], in data set [2] and in [3] were more than 5 µM, more than 10 µM and more than 5 µM, respectively.

Regarding `COc1cc2nccc(Oc3c(F)cc(NC(=O)NC4CC4)c(Cl)c3F)c2cc1C(=O)NCCF` [IIIb-06], the IC50 in data set [4] is more than 10 µM; in the data set on prostatic cancer (PC-3), more than 10 µM; against hERG potassium channels it was 18.7 µM; in [5], 2.5 to 5 µM; in data set [6], 5 to 10 µM; in data set [1] it was 2.5 to 5 µM. Besides, the IC50 in data set [7] was less than 5 µM; in data set [2], more than 10 µM; in data set [3], 2.5 to 5 µM.

Turning to `COc1cc2nccc(Oc3c(F)cc(NC(=O)NC4CC4)c(Cl)c3F)c2cc1C(=O)Nc1cncn1C` [IIIb-54], the half-inhibitory concentration (IC50) in data set [1] was more than 5 µM; in data set [2], more than 10 µM; in data set [3], more than 5 µM.

With `COc1cc2nccc(Oc3c(F)cc(NC(=O)NC4CC4)c(Cl)c3F)c2cc1C(=O)NC1CCN(C)CC1` [IIIb-28], the IC50 in data set [1] is more than 5 µM; in data set [2] it was more than 10 µM; in data set [3] it was more than 5 µM.

As to `COc1cc2nccc(Oc3c(F)cc(NC(=O)NC4CC4)c(Cl)c3F)c2cc1C(=O)NC1CC1` [IIIb-12], the figures for the IC50 in data set [1], in [2] and in data set [3] were more than 5 µM, more than 10 µM and more than 5 µM, respectively.

As usually defined, the IC50 is the concentration that inhibits the measured activity by half.

For the origin of these results see patent US11912663B2, “Multi-targeted tyrosine kinase inhibitors and their pharmaceutical uses” (Shanghai AB PharmaTech Ltd., priority 2021, dated 2024).
